In patent US20240425464A1, “Substituted Monohydrazides as Potent Antifungal Agents” (University of Kentucky Research Foundation, priority 2023, published 2024):
In brackets after ≈: the same amount, converted by molar mass. Where two headings read alike, the source gives them in different places.

Experiments:
[1] = system: Candida duobushaemulonii AR Bank #394; experiment: MIC determination by in vitro antifungal assay; type: cell-based
Description: (§1) The antifungal agent amphotericin B (AmB) was purchased from VWR (Radnor PA, USA). AmB was dissolved in DMSO at a final concentration of 5 mg/mL and was stored at −20° C., protected from light. Candida albicans American Type Culture Collection (ATCC) 10231 (strain A), C. albicans ATCC 64124 (B), and C. albicans ATCC MYA-2876 (C) were obtained from Utah State University. C. albicans ATCC 90819 (D), C. albicans ATCC MYA-2310 (E), C. albicans ATCC MYA-1237 (F), C. albicans ATCC MYA-1003 (G), Candida glabrata ATCC 2001 (H), Candida krusei ATCC 6258 (I), Candida parapsilosis ATCC 22019 (J), Cryptococcus neoformans ATCC MYA-895 (M), Aspergillus terreus ATCC MYA-3633 (N), and Aspergillus flavus ATCC MYA-3631 (0) were obtained from the American Type Culture Collection (ATCC; Manassas, VA, USA). Aspergillus nidulans ATCC 38163 (P) was obtained from University of Kentucky. Clinically derived Aspergillus fumigatus NRRL 163 (Q), A. fumigatus NRRL 5109 (R), and A. fumigatus NRRL 6113 (S) were obtained from Northern Regional Research Laboratory (NRRL). Candida auris 384 (K), C. auris 390 (L), and fungal strains 381-400 (including 10 C. auris (AR Bank #381-390), 3 Candida duobushaemulonii (AR Bank #391, AR Bank #392, and AR Bank #394), 2 Candida haemulonii (AR Bank #393 and AR Bank #395), 1 Kodameae ohmeri (AR Bank #396), 1 C. krusei (AR Bank #397), 1 Candida lusitaniae (AR Bank #398), and 2 Saccharomyces cerevisiae strains (AR Bank #399 and AR Bank #400)) were part of a larger fungal library from the AR Bank maintained by the Centers for Disease Control and Prevention (CDC; Atlanta, GA, USA). Filamentous fungi and yeasts were cultivated at 35° C. in RPMI 1640 medium (with L-glutamine, without sodium bicarbonate, Sigma-Aldrich, St. Louis, MO) buffered to a pH of 7.0 with 0.165 M morpholinepropanesulfonic acid (MOPS) buffer (Sigma-Aldrich). For cytotoxicity assays, HepG2 and the mouse macrophage cell line J774A.1 were obtained from University of Kentucky. The human embryonic kidney cell line, HEK-293, was bought from the ATCC. Mammalian cells were grown in Dulbecco's Modified Eagle's Medium (DMEM) (from VWR) with 10% fetal bovine serum (FBS) (from VWR) and 1% Pen/Strep (from ATCC). Cell lines were cultured at 37° C. with 5% CO2 and passaged by trypsinization with 0.05% trypsin: 0.53 mM EDTA (from Sigma-Aldrich).
(§2) From the actively growing yeast culture, 100 µL were then transferred to 900 μL of RPMI 1640 medium and re-adjusted to achieve OD600 of 0.12 (˜1×10^6 CFU/mL). The cell suspension was further diluted to achieve 1:100 in RPMI 1640 medium.

[2] = system: Candida lusitaniae AR Bank #398; experiment: MIC determination by in vitro antifungal assay; type: cell-based; conditions: Candida strain AR Bank #398
Description: as §1, §2

[3] = system: Saccharomyces cerevisiae AR Bank #399; experiment: MIC determination by in vitro antifungal assay; type: cell-based
Description: as §1, §2

[4] = system: Candida duobushaemulonii AR Bank #391; experiment: MIC determination by in vitro antifungal assay; type: cell-based
Description: as §1, §2

[5] = system: Kodameae ohmeri AR Bank #396; experiment: MIC determination by in vitro antifungal assay; type: cell-based; conditions: strain AR Bank #396
Description: as §1, §2

[6] = system: Candida haemulonii AR Bank #393; experiment: MIC determination by in vitro antifungal assay; type: cell-based
Description: as §1, §2

[7] = system: Candida haemulonii AR Bank #395; experiment: MIC determination by in vitro antifungal assay; type: cell-based
Description: as §1, §2

[8] = system: Candida duobushaemulonii AR Bank #392; experiment: MIC determination by in vitro antifungal assay; type: cell-based
Description: as §1, §2

[9] = system: Candida krusei AR Bank #397; experiment: MIC determination by in vitro antifungal assay; type: cell-based; conditions: Candida strain AR Bank #397
Description: as §1, §2

[10] = system: C. auris AR Bank #382; experiment: MIC determination by in vitro antifungal assay; type: cell-based, Candida auris
Description: as §1, §2

[11] = system: C. auris AR Bank #387; experiment: MIC determination by in vitro antifungal assay; type: cell-based, Candida auris
Description: as §1, §2

[12] = system: C. auris AR Bank #383; experiment: MIC determination by in vitro antifungal assay; type: cell-based, Candida auris
Description: as §1, §2

[13] = system: C. auris AR Bank #385; experiment: MIC determination by in vitro antifungal assay; type: cell-based, Candida auris
Description: as §1, §2

[14] = system: C. auris AR Bank #386; experiment: MIC determination by in vitro antifungal assay; type: cell-based, Candida auris
Description: as §1, §2

[15] = system: C. auris AR Bank #389; experiment: MIC determination by in vitro antifungal assay; type: cell-based, Candida auris
Description: as §1, §2

[16] = system: C. auris AR Bank #388; experiment: MIC determination by in vitro antifungal assay; type: cell-based, Candida auris
Description: as §1, §2

[17] = system: C. auris AR Bank #381; experiment: MIC determination by in vitro antifungal assay; type: cell-based, Candida auris
Description: as §1, §2

[18] = system: panel of ten C. auris strains (AR Bank #381-390); experiment: MIC determination, summary over the C. auris panel; type: cell-based, Candida auris; conditions: Candidozyma auris; against all ten C. auris strains tested (AR Bank #381-390)
Description: as §1, §2

[19] = Candidozyma duobushaemuli, read-out: MIC
[20] = Candidozyma haemuli, read-out: MIC

Compound	MIC [1] [μg/mL^−1]	MIC [2] [μg/mL^−1]	MIC [3] [μg/mL^−1]	MIC [4] [μg/mL^−1]	MIC [5] [μg/mL^−1]	MIC [6] [μg/mL^−1]	MIC [7] [μg/mL^−1]	MIC [8] [μg/mL^−1]	MIC [9] [μg/mL^−1]	MIC ([10]; C. auris AR Bank #382) [μg/mL^−1]	MIC ([11]; C. auris AR Bank #387) [μg/mL^−1]	MIC ([12]; C. auris AR Bank #383) [μg/mL^−1]	MIC ([13]; C. auris AR Bank #385) [μg/mL^−1]	MIC ([14]; C. auris AR Bank #386) [μg/mL^−1]	MIC ([15]; C. auris AR Bank #389) [μg/mL^−1]	MIC ([16]; C. auris AR Bank #388) [μg/mL^−1]	MIC ([17]; C. auris AR Bank #381) [μg/mL^−1]	also measured
O=C(NNc1cccc(F)c1)c1ccccn1 [Compound 2a]	0.49	0.98	1.95	0.49	0.24	0.12	≤0.06	0.24	0.24	0.98	0.49	1.95	0.98	0.49	0.12	0.49	0.49	
COc1cccc(NNC(=O)c2ccccn2)c1 [Compound 2c]	0.98	1.95	7.8	1.95	0.49	0.49	0.49	1.95	0.49	0.98	0.49	0.98	3.9	0.49	0.49	3.9	3.9	
C[C@@H]1[C@H](O)[C@@H](C)/C=C/C=C/C=C/C=C/C=C/C=C/C=C/[C@H](O[C@@H]2O[C@H](C)[C@@H](O)[C@H](N)[C@@H]2O)C[C@@H]2O[C@](O)(C[C@@H](O)C[C@@H](O)[C@H](O)CC[C@@H](O)C[C@@H](O)CC(=O)O[C@H]1C)C[C@H](O)[C@H]2C(=O)O [AmB, amphotericin B, reference compound]	0.98	3.9	15.6	7.8	1.95	13.6	3.9	7.8	0.49	0.98	0.98	1.95	1.95	0.98	1.95	1.95	0.98	MIC ([10]; C. auris AR Bank # 382 (Table 2B)): 0.98 μg/mL^−1; MIC ([11]; C. auris AR Bank # 387 (Table 2B)): 0.98 μg/mL^−1; MIC ([12]; C. auris AR Bank # 383 (Table 2B)): 1.95 μg/mL^−1; MIC ([13]; C. auris AR Bank # 385 (Table 2B)): 1.95 μg/mL^−1; MIC ([14]; C. auris AR Bank # 386 (Table 2B)): 0.98 μg/mL^−1; MIC ([15]; C. auris AR Bank # 389 (Table 2B)): 1.95 μg/mL^−1; MIC ([16]; C. auris AR Bank # 388 (Table 2B)): 1.95 μg/mL^−1; MIC ([17]; C. auris AR Bank # 381 (Table 2B)): 0.98 μg/mL^−1
COc1cccc(NNC(=O)c2cnccn2)c1 [Compound 9c]																		MIC [1, 19]: 1.95 µg/mL (≈ 7.98 µM); MIC ([2]; Clavispora lusitaniae, read-out: MIC): 1.95 µg/mL (≈ 7.98 µM); MIC ([3]; read-out: MIC): 7.8 µg/mL (≈ 31.9 µM); MIC ([5]; read-out: MIC): 0.49 µg/mL (≈ 2.01 µM); MIC [6, 20]: 0.49 µg/mL (≈ 2.01 µM); MIC [7, 20]: 0.49 µg/mL (≈ 2.01 µM); MIC [8, 19]: 0.98 µg/mL (≈ 4.01 µM); MIC ([9]; Pichia kudriavzevii, read-out: MIC): 0.49 µg/mL (≈ 2.01 µM); MIC [18]: 0.12 to 7.8 µg/mL (≈ 0.491 to 31.9 µM); MIC ([10]; Candidozyma auris, C. auris AR Bank #382, read-out: MIC): 0.98 µg/mL (≈ 4.01 µM); MIC ([11]; Candidozyma auris, C. auris AR Bank #387, read-out: MIC): 0.98 µg/mL (≈ 4.01 µM); MIC ([12]; Candidozyma auris, C. auris AR Bank #383, read-out: MIC): 1.95 µg/mL (≈ 7.98 µM); MIC ([13]; Candidozyma auris, C. auris AR Bank #385, read-out: MIC): 7.8 µg/mL (≈ 31.9 µM); MIC ([14]; Candidozyma auris, C. auris AR Bank #386, read-out: MIC): 0.49 µg/mL (≈ 2.01 µM); MIC ([15]; Candidozyma auris, C. auris AR Bank #389, read-out: MIC): 0.98 µg/mL (≈ 4.01 µM); MIC ([16]; Candidozyma auris, C. auris AR Bank #388, read-out: MIC): 3.9 µg/mL (≈ 16 µM); MIC ([17]; Candidozyma auris, C. auris AR Bank #381, read-out: MIC): 1.95 µg/mL (≈ 7.98 µM)
